Values joined by “and” are separate entries in the source; they are usually repeats but may differ in a detail not shown here. Equal values may be shown once. Read-outs that look alike come from different tables or passages of the source.
Legend:
[1] = test system: normal primary hepatocytes; assay: HemoShear Technology, normal primary hepatocytes (Example 11); format: cell-based, human; details: Normal pHeps
MMA primary hepatocytes = assay: HemoShear Technology, MMA primary hepatocytes (Examples 10, 11); format: cell-based, human; details: for EC50 / EC90: Homo sapiens, Hepatocyte
[2] = test system: primary hepatocytes of methylmalonic acidemia patients; assay: Propionyl-CoA and methylmalonyl-CoA from various sources in MMA primary hepatocytes (Examples 4, 5); format: cell-based, human; details: Homo sapiens, Hepatocyte
Procedure: Primary hepatocytes isolated from livers of methylmalonic acidemia patients are treated with increasing doses of compound 1 (0, 1, 3, 10, 30, 100, 300, 1000 μM) for 30 minutes. […] At the end of the challenge period, media is removed and the cells are lysed with 70% MCCN and 0.1% TFA containing 100 μM of ethymalonyl-CoA as an internal standard and harvested. Cell lysates are processed for HTMS/MS analysis.
Primary hepatocytes isolated from livers of methylmalonic acidemia patients are treated with increasing doses of compound 5 (0, 0.1, 0.3, 1, 3, 10, 30, 100 μM) for 30 min. […] At the end of the challenge period, media is removed and the cells are lysed with 70% MeCN and 0.1% TFA containing 100 μM of ethymalonyl-CoA as an internal standard and harvested. Cell lysates are processed for HTMS/MS analysis.

clinical = assay: clinical; parameters: species or system human; details: in vivo; for AUC / Cmax: human
Procedure: In some embodiments, the method entails administering 2,2-dimethylbutyric acid, or a CoA ester or carnitine ester thereof, or a pharmaceutically acceptable salt, ester, or solvate thereof, at a concentration ranging from about, including about […] to 50 mg/kg.

PA primary hepatocytes = assay: HemoShear Technology, PA primary hepatocytes (Examples 10, 11); format: cell-based, human
Excerpt: For this experiment, we deployed the HemoShear REVEAL-Tx™ technology, which is based on the cone-and-plate configuration or viscometer combined with a porous polycarbonate membrane that mimics a filtering layer of sinusoidal endothelial cells (see: Dash A, Deering TG, Marukian S, et al. Physiological Hemodynamics and Transport Restore Insulin and Glucagon Responses in a Normal Glucose Milieu in Hepatocytes In Vitro. 73rd Scientific Sessions of the American Diabetes Association, 2013 (Chicago), and U.S. Pat. Nos. 7,811,782 and 9,500,642, and 9,617,521, each of which is incorporated by reference herein in its entirety).
Hepatocytes from propionic academia patients are plated in a collagen gel sandwich on one side of the membrane replicating the polarized orientation found in vivo within the hepatic sinusoids. On the other side, medium is continuously perfused and surface shear rates are applied across a range of physiological values derived from sinusoidal flow rates in vivo while also controlling transport in the system with in- and out-flow tubing to each compartment. Effectively, this creates a flow-based culture system where hepatocytes are shielded from direct effects of flow, as they would be in vivo, but perfusion, nutrient gradients, and interstitial fluid movement are maintained.
Biomarker levels are normalized to cell counts and cell volume to account for differences in the number of cells plated for each donor. […] This is most likely due to the presence of ^12C-succinyl-CoA in the sample, which has the same mass. In experiments described below, M-CoA is labeled with ^13C to determine a more accurate percent reduction. Compound 5 reduced the C3 concentration and the C3/C2 ratio with an EC50 similar to that for the reduction in P-CoA (FIGS. 7C, D).

[3] = MMA pHeps, HemoShear, average ± SD
[4] = PA pHeps, HemoShear, average ± SD

## CCC(C)(C)C(=O)O [Compound 5, 2,2-dimethybutanoic acid]
[1]; Homo sapiens, Hepatocyte, read-out: Compound 5-CoA (formation) EC50
  EC50: 8.3 ± 8 µM
[1]; Homo sapiens, Hepatocyte, read-out: Compound 5-CoA (formation) EC90
  EC90: 26.1 ± 3.1 µM
[1]
  12C-Acetyl-CoA Percent change at 30 μM: 20 ± 2.9%
  CoASH Percent change at 30 μM: −35.2 ± 3%
MMA primary hepatocytes; MMA donor 1, representative data (FIG. 7A), read-out: P-CoA reduction EC50
  EC50: 3.9 µM
MMA primary hepatocytes; MMA donor 1, representative data (FIG. 7B), read-out: M-CoA reduction EC50
  EC50: 3.25 µM
MMA primary hepatocytes; MMA donor 1, representative data (FIG. 7E), read-out: MCA reduction EC50
  EC50: 1.66 µM
MMA primary hepatocytes; MMA pHeps, HemoShear, average ± SD, read-out: 2-Methylcitric acid (2MC) EC50
  EC50: 0.8 ± 0.5 µM
MMA primary hepatocytes; MMA pHeps, HemoShear, average ± SD, read-out: 2-Methylcitric acid (2MC) EC90
  EC90: 7.5 ± 6.4 µM
MMA primary hepatocytes; MMA pHeps, HemoShear, average ± SD, read-out: 12C-Acetyl-Camitine (C2) EC50
  EC50: 4.3 ± 2.2 µM
MMA primary hepatocytes; MMA pHeps, HemoShear, average ± SD, read-out: 12C-Acetyl-Camitine (C2) EC90
  EC90: 31.3 ± 26.9 µM
MMA primary hepatocytes; MMA pHeps, HemoShear, average ± SD, read-out: 12C-Methylmalonyl-CoA (M-CoA) EC50
  EC50: 2 ± 1.2 µM
MMA primary hepatocytes; MMA pHeps, HemoShear, average ± SD, read-out: 12C-Methylmalonyl-CoA (M-CoA) EC90
  EC90: 12.6 ± 12.9 µM
MMA primary hepatocytes; MMA pHeps, HemoShear, average ± SD, read-out: 12C-Propionyl-Carnitine (C3) EC50
  EC50: 1.4 ± 0.5 µM
MMA primary hepatocytes; MMA pHeps, HemoShear, average ± SD, read-out: 12C-Propionyl-Carnitine (C3) EC90
  EC90: 18.1 ± 16.2 µM
MMA primary hepatocytes; MMA pHeps, HemoShear, average ± SD, read-out: 12C-Propionyl-CoA (P-CoA) EC50
  EC50: 2.1 ± 1.5 µM
MMA primary hepatocytes; MMA pHeps, HemoShear, average ± SD, read-out: 12C-Propionyl-CoA (P-CoA) EC90
  EC90: 36.1 ± 30.1 µM
MMA primary hepatocytes; MMA pHeps, HemoShear, read-out: CoASH EC50
  EC50: 14.1 ± 8.4 µM
MMA primary hepatocytes; MMA pHeps, HemoShear, read-out: CoASH EC90
  EC90: 23.8 ± 20.2 µM
MMA primary hepatocytes; MMA pHeps, HemoShear, read-out: Compound 5-CoA (formation) EC50
  EC50: 3.5 ± 1.7 µM
MMA primary hepatocytes; MMA pHeps, HemoShear, read-out: Compound 5-CoA (formation) EC90
  EC90: 52.4 ± 45.6 µM
MMA primary hepatocytes; MMA pHeps, HemoShear
  12C-Acetyl-CoA Percent change at 30 μM: 13.5 ± 24.9%
  CoASH Percent change at 30 μM: −22.3 ± 22.3%
MMA primary hepatocytes; MMA pHeps, HemoShear, at 30 μM
  average reduction in the C3/C2 ratio: −2.2±0.2 log 2 fold change
MMA primary hepatocytes; [3]
  2-Methylcitric acid (2MC) % change at 30 μM: −66.7±14.9%
  12C-Acetyl-Camitine (C2) % change at 30 μM: 44.6 ± 26.8%
  12C-Methylmalonyl-CoA (M-CoA) % change at 30 μM: −55±6.6%
  12C-Propionyl-Carnitine (C3) % change at 30 μM: −65.9±10.7%
  12C-Propionyl-CoA (P-CoA) % change at 30 μM: −74.2±11.6%
[2]; 100 μM 13C-heptanoate, read-out: concentration of methylmalonyl-CoA EC50
  EC50: 0.02 µM
[2]; 100 μM 13C-heptanoate, read-out: concentration of propionyl-CoA EC50
  EC50: 3.84 µM
[2]; 1 mM 13C-KIVA, read-out: concentration of methylmalonyl-CoA EC50
  EC50: 1.17 µM
[2]; 1 mM 13C-KIVA, read-out: concentration of propionyl-CoA EC50
  EC50: 0.93 µM
[2]; 3 mM 13C-ILE, read-out: concentration of methylmalonyl-CoA EC50
  EC50: 1.38 µM
[2]; 3 mM 13C-ILE, read-out: concentration of propionyl-CoA EC50
  EC50: 2.04 µM
clinical; 30 mg/kg
  AUC: 2180 µg·h/mL
  Cmax: 156 µg/mL
clinical; 40 mg/kg
  AUC: 2620 µg·h/mL
  Cmax: 203 µg/mL
clinical; 50 mg/kg
  AUC: 3200 µg·h/mL
  Cmax: 256 µg/mL
clinical
  Blood plasma concentrations following administration (dose dependence): dose proportional
PA primary hepatocytes; Homo sapiens, Hepatocyte, HemoShear, PA and MMA pHeps together, read-out: average EC90 value across all biomarkers
  EC90: 17.1 ± 13.4 µM
PA primary hepatocytes; Homo sapiens, Hepatocyte, PA donor 1, representative data (FIG. 7A), read-out: P-CoA reduction EC50
  EC50: 1.84 µM
PA primary hepatocytes; Homo sapiens, Hepatocyte, PA donor 1, representative data (FIG. 7E), read-out: MCA reduction EC50
  EC50: 1.96 µM
PA primary hepatocytes; Homo sapiens, Hepatocyte, PA pHeps, HemoShear, average ± SD, read-out: 2-Methylcitric acid (2MC) EC50
  EC50: 1.1 ± 0.5 µM
PA primary hepatocytes; Homo sapiens, Hepatocyte, PA pHeps, HemoShear, average ± SD, read-out: 2-Methylcitric acid (2MC) EC90
  EC90: 7.9 ± 3.6 µM
PA primary hepatocytes; Homo sapiens, Hepatocyte, PA pHeps, HemoShear, average ± SD, read-out: 12C-Acetyl-Camitine (C2) EC50
  EC50: 4.8 ± 0.2 µM
PA primary hepatocytes; Homo sapiens, Hepatocyte, PA pHeps, HemoShear, average ± SD, read-out: 12C-Acetyl-Camitine (C2) EC90
  EC90: 20.7 ± 13.1 µM
PA primary hepatocytes; Homo sapiens, Hepatocyte, PA pHeps, HemoShear, average ± SD, read-out: 12C-Propionyl-Carnitine (C3) EC50
  EC50: 2.6 ± 1.9 µM
PA primary hepatocytes; Homo sapiens, Hepatocyte, PA pHeps, HemoShear, average ± SD, read-out: 12C-Propionyl-Carnitine (C3) EC90
  EC90: 30.8 ± 26.4 µM
PA primary hepatocytes; Homo sapiens, Hepatocyte, PA pHeps, HemoShear, average ± SD, read-out: 12C-Propionyl-CoA (P-CoA) EC50
  EC50: 1.9 ± 1 µM
PA primary hepatocytes; Homo sapiens, Hepatocyte, PA pHeps, HemoShear, average ± SD, read-out: 12C-Propionyl-CoA (P-CoA) EC90
  EC90: 18.4 ± 11.3 µM
PA primary hepatocytes; Homo sapiens, Hepatocyte, PA pHeps, HemoShear, read-out: 12C-Acetyl-CoA EC50
  EC50: 2.3 ± 1.9 µM
PA primary hepatocytes; Homo sapiens, Hepatocyte, PA pHeps, HemoShear, read-out: 12C-Acetyl-CoA EC90
  EC90: 14.4 ± 13.6 µM
PA primary hepatocytes; Homo sapiens, Hepatocyte, PA pHeps, HemoShear, read-out: CoASH EC50
  EC50: 11.6 ± 1.2 µM
PA primary hepatocytes; Homo sapiens, Hepatocyte, PA pHeps, HemoShear, read-out: CoASH EC90
  EC90: 29.8 ± 24.3 µM
PA primary hepatocytes; Homo sapiens, Hepatocyte, PA pHeps, HemoShear, read-out: Compound 5-CoA (formation) EC50
  EC50: 3 ± 1.5 µM
PA primary hepatocytes; Homo sapiens, Hepatocyte, PA pHeps, HemoShear, read-out: Compound 5-CoA (formation) EC90
  EC90: 47.1 ± 39.7 µM
PA primary hepatocytes; PA pHeps, HemoShear
  12C-Acetyl-CoA Percent change at 30 μM: 54 ± 80.6%
  CoASH Percent change at 30 μM: −31.3 ± 24.2%
PA primary hepatocytes; PA pHeps, HemoShear, at 30 μM
  average reduction in the C3/C2 ratio: −2.1±1.2 log 2 fold change
PA primary hepatocytes; [4]
  2-Methylcitric acid (2MC) % change at 30 μM: −78.6±12.9%
  12C-Acetyl-Camitine (C2) % change at 30 μM: 54 ± 80.6%
  12C-Propionyl-Carnitine (C3) % change at 30 μM: −68.9±14.6% and −69.4 ± 16.2%
  12C-Propionyl-CoA (P-CoA) % change at 30 μM: −78.8±10.9%
PA primary hepatocytes; PA pHeps, HemoShear, average ± SD, read-out: 12C-Propionyl-Carnitine (C3) EC90
  EC90: 32.1 ± 29.3 µM
